Experimental data published in patent US7575882B2, “Compositions and methods for identifying modulators of TRPV2” (Janssen Pharmaceutica N. V., priority 2005, dated 2009).

Key:
Format in all cases: cell-based
rat TRPV2 = biological target: T1, rat TRPV2 (Rattus norvegicus, UniProt Q9WUD2, A713V/L151P/T158I); test: Whole-cell patch clamp, HEK293 cells stably expressing rat TRPV2; conditions: 100 μM
T1 construct: A cDNA fragment encoding the full-length rat TRPV2 was subcloned into pCI-neo; expressed in transfected cells
T1 sequence (Q9WUD2 1-761 L151P/T158I/A713V): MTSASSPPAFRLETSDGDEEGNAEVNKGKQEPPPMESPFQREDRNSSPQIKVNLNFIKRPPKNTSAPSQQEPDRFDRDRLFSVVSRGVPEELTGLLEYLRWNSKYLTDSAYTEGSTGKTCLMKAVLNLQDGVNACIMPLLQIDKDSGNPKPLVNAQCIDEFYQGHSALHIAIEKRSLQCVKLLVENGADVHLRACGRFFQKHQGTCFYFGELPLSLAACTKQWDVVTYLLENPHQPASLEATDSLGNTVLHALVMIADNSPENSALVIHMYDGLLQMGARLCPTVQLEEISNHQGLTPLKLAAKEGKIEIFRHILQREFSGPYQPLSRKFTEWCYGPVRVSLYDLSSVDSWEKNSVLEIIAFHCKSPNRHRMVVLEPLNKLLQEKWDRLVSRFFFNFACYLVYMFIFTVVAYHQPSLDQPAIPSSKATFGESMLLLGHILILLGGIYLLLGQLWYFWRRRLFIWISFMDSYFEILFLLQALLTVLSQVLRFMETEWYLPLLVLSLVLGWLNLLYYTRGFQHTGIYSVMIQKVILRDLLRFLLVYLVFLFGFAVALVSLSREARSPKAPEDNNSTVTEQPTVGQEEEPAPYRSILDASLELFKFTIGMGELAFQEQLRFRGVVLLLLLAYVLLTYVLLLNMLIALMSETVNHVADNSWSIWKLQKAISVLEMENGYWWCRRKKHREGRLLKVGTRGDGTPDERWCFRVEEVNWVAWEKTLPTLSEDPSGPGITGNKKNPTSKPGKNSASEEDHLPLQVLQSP
Method: To further confirm the Δ^9-THC effect on TRPV2, whole-cell patch clamp studies were performed. The extracellular solution contained (in mM): NaCl, 132; CaCl, 1.8; KCl, 5.4; MgCl2, 0.8; HEPES, 10; glucose, 10; pH=7.4. The intracellular solution used to fill recording pipettes contained (in mM): CsCl, 145; EGTA, 5; HEPES, 10; glucose, 5; pH=7.4. Recordings were performed using the conventional whole-cell patch clamp technique, 2-3 days after transient transfection of human TRPV2 into HEK293 cell or 1-2 days after plating HEK293 cells stably expressing rat TRPV2 onto glass coverslips. Currents were amplified by a patch clamp amplifier and filtered at 2 kHz (Axopatch 200B), sampled at 10 kHz using Digidata 1322A and acquired and analyzed with pClamp 9.0 (all instruments from Molecular Devices, CA). A 600 ms voltage ramp was given once every five seconds from −100 mV to +60 mV. The holding potential between voltage ramps was −100 mV. Extracellular solutions were applied to the cell at 0.5 ml/min via a gravity-fed perfusion system. All experiments were performed at 22° C.

[1] = biological target: T2, rat and human TRPV2 chimera RHR (Rattus norvegicus, UniProt Q9WUD2, A398L/D418K/D570G/D595E/E431N/E493A/E569T/E577V/E585D/F395L/F429V/I422A/INS586GN/K566E/L151P/L436T/L450V/L461V/L478F/L485V/L503S/M468I/M492L/N571P/P420Q/P587G/P589Q/Q419K/R460H/R490C/R560Q/R563W/R617H/S416T/S424H/S425L/S504A/S564R/S573A/S592G/T428E/T494I/T576S/T580M/V402I/V409A/V543I/V575E/V581E/V621M/V635I/Y400N); test: Calcium mobilization in HEK293 cells expressing TRPV2 chimera RHR; conditions: transient expression in HEK293
T2 construct: expressed in transfected cells; host or cells: HEK293, transient, pCI-neo
T2 sequence (Q9WUD2 other isoform, or with tags, fused parts or gaps with the stated changes): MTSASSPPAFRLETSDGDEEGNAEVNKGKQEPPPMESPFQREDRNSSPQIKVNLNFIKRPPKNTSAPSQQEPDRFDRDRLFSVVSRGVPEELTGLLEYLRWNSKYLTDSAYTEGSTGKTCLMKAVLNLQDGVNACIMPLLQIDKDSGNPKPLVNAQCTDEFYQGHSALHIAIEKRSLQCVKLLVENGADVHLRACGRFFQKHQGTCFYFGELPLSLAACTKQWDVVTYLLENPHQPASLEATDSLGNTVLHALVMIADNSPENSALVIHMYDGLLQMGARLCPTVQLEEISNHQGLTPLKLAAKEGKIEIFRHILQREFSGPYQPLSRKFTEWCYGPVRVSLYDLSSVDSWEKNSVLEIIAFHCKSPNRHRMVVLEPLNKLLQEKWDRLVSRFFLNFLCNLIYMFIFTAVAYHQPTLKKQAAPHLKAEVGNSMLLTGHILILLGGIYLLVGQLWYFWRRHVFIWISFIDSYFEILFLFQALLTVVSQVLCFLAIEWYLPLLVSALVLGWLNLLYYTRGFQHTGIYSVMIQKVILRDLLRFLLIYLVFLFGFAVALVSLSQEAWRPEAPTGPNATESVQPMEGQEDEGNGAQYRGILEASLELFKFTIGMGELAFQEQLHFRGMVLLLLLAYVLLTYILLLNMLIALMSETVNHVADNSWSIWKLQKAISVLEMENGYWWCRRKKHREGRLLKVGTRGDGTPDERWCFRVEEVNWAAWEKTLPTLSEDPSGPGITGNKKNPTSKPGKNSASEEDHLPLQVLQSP
Method: The deletion mutant constructs were then transfected into HEK293 cells using Fugene 6 reagent (Roche) as per the manufacturer's instructions. At 24 hours post-transfection, the cells were harvested and replated in fresh DMEM medium supplemented with 10% fetal bovine serum, 100 units/ml penicillin, and 100 μg/ml streptomycin. The cells were distributed onto poly-D-Lysine coated 96-or 384-well plates at a density of approximately 40,000 and 10,000 cells per well, respectively. At approximately 48 hours post-transfection, the medium was removed from the assay plate and replaced with Calcium 3 Dye Buffer (Molecular Devices) using the protocol available from the manufacturer. Calcium mobilization was triggered using Δ^9-THC or 2-APB or elevated temperature buffer and measured using either FLIPR or FLEX STATION instruments.
Based on the predicted topology and primary sequence features of TRPV2, TRPV2 are divided into 3 major domains: 1) the amino-terminal intracellular domain; 2) the transmembrane domain; and 3) the carboxyl-terminal intracellular domain. For a chimera, each domain can be of rat (R) or human (H) origin. Three rat and human TRPV2 chimera were constructed and tested herein. RRH (SEQ ID NO:15) was a chimera comprising rat 1-392 aa, rat 393-646 aa, and human 647-764 aa. RHR (SEQ ID NO:16) was a chimera comprising rat 1-392, human 391-646, and rat 647-761. HRR (SEQ ID NO:17) was a chimera comprising human 1-390, rat 393-646, and rat 647-761.
DNA molecules encoding the three rat and human TRPV2 chimeras were obtained by fusion PCR. First, DNA molecules encoding the desired TRPV2 domains were amplified by PCR using the rat or human TRPV2 cDNA as the template with synthetic primer DNA containing in-frame sequence that overlapped with the other species domain to be linked. After PCR amplification and purification, DNA molecules encoding the desired TRPV2 domains from human and rat were combined and used as templates for fusion PCR with primer DNA matching the 5′ and 3′ end sequences of the coding sequence for the full length TRPV2 chimera. […]

human TRPV1 = biological target: T3, human TRPV1 (Homo sapiens, UniProt Q8NER1); test: FLIPR assay in HEK293 cells expressing human TRPV1; conditions: Δ^9-THC 240 μM, cannabinol 600 μM, others 120 μM
T3 construct: expressed in transfected cells; host or cells: HEK293
T3 sequence (Q8NER1 whole entry): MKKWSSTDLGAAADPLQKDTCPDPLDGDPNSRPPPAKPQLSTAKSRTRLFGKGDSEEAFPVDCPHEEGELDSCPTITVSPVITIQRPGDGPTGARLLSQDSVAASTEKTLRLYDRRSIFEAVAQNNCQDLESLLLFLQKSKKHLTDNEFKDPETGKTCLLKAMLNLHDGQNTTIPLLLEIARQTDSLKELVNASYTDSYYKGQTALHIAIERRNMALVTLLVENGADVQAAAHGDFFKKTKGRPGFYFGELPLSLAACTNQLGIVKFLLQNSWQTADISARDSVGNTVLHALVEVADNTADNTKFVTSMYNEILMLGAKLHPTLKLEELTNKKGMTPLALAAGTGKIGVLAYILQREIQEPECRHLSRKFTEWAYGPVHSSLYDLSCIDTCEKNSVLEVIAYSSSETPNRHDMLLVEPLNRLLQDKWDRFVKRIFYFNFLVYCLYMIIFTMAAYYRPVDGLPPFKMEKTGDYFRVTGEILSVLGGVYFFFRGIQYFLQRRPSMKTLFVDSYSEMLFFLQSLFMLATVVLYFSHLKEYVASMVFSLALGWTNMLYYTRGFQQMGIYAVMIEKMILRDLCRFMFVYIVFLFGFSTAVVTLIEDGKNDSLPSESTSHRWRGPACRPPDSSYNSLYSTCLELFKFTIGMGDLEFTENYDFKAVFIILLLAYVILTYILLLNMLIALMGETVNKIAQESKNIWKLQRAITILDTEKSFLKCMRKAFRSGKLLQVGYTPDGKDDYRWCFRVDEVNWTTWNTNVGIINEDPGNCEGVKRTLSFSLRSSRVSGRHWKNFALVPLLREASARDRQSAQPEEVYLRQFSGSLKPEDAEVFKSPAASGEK
Method: A selected number of cannabinoids were also tested against HEK293 cells expressing human TRPV1 and canine TRPM8 in the FLIRP assay.

## Delta-9-tetrahydrocannabinol [Δ^9-THC]
Rat TRPV2; 22° C., hyperpolarized and depolarized potentials
  whole-cell current amplitude in HEK293 cells expressing rTRPV2 compared to control: significant increase of the whole-cell current amplitude
Rat TRPV2; whole-cell patch clamp
  reversal potential of the activated current: ~0 mV
[1]
  response of chimera RHR to the compound: fully responsive
[1]; listed as Δ9-THC
  response of chimera RHR to the compound: active
Human TRPV1
  activation of TRPV1: no significant activation
